Consider twelve compounds from PubChem BioAssay (NCI).

Test systems include HOP-92 NSCLC; A549 NSCLC; UACC-257 melanoma; BT-549 breast; SN12C renal; LOX IMVI melanoma; COLO 205 colon; T-47D breast; 786-0 renal; NCI-H460 lung; SNB-19 CNS; SK-OV-3 ovarian; NCI-H522 lung; CAKI-1 renal; MDA-MB-231 breast; SF-539 CNS; HS 578T breast.
Common to all, as to assay: NCI-60 cell line screen, 48 h

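Growth conditions: 96-well plates. Treatment: test compound, 48 hours, 5 concentrations. Analysis: linear interpolation between bracketing concentrations; unreached endpoints set to highest concentration. TGI: total growth inhibition.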

Turning to `O=[N+]([O-])c1cc(-c2nc(-c3ccccc3)c(-c3ccccc3)[nH]2)c(O)c([N+](=O)[O-])c1`, the TGI with HOP-92 NSCLC was 36.9 µM; in the assay on A549 NSCLC, greater than 100 µM; in the assay on UACC-257 melanoma it was 50.9 µM; in the assay on BT-549 breast, 59.8 µM; in the assay on SN12C renal, 77.4 µM; with LOX IMVI melanoma it was 49.1 µM. The TGI in the assay with COLO 205 colon was 45.1 µM; in the assay on T-47D breast, 68.3 µM; with 786-0 renal, 48.6 µM; with NCI-H460 lung it was 48.3 µM; in the assay with SNB-19 CNS it was greater than 100 µM; in the assay on SK-OV-3 ovarian, 40.6 µM. Moreover, the TGI with NCI-H522 lung was 63.7 µM; in the assay on CAKI-1 renal it was 77.6 µM; with MDA-MB-231 breast, 49.9 µM; in the assay on SF-539 CNS, 41.5 µM; in the assay on HS 578T breast, greater than 100 µM.
As to `CCOC(=O)c1c(N2CCOCC2)[nH]c(=O)c(C(c2ccco2)c2c(O)c(C(=O)OCC)c(N3CCOCC3)[nH]c2=O)c1O`, the TGI in the assay with HOP-92 NSCLC, with A549 NSCLC, in the assay on UACC-257 melanoma, with BT-549 breast, in the assay with SN12C renal and in the assay with LOX IMVI melanoma was greater than 100 µM in each case. Further, the TGI in the assay with COLO 205 colon, in the assay with T-47D breast, in the assay on 786-0 renal, in the assay with NCI-H460 lung, in the assay on SNB-19 CNS and in the assay on SK-OV-3 ovarian was greater than 100 µM throughout. Moreover, the TGI with NCI-H522 lung, with CAKI-1 renal, in the assay with MDA-MB-231 breast, with SF-539 CNS and with HS 578T breast was greater than 100 µM throughout.
Consider `CCCCCCCCCCNC(=O)CCC(NC(=O)c1ccc(N(C)Cc2cnc3nc(N)nc(N)c3n2)cc1)C(=O)NCCCCCCCCCC` (centres undefined), for which the TGI in the assay on HOP-92 NSCLC was 27.1 µM; in the assay on A549 NSCLC, greater than 100 µM; in the assay with UACC-257 melanoma, greater than 60.1 µM; in the assay on BT-549 breast it was 26.3 µM; with SN12C renal it was greater than 57.2 µM; in the assay with LOX IMVI melanoma, 5.81 µM. The TGI was 15.2 µM with COLO 205 colon; 40.3 µM in the assay with T-47D breast; 13.5 µM in the assay with 786-0 renal; 13.1 µM in the assay on NCI-H460 lung; 31.7 µM in the assay with SNB-19 CNS; 65.3 µM with SK-OV-3 ovarian. Moreover, the TGI is 16.6 µM in the assay on NCI-H522 lung; greater than 100 µM in the assay on CAKI-1 renal; 11.3 µM in the assay with MDA-MB-231 breast; 15.3 µM in the assay on SF-539 CNS; 20.8 µM in the assay on HS 578T breast.
Turning to `COC(=O)c1ccccc1C1CN=NC12Cc1cc(C)ccc1C2=O` (centres undefined), the TGI in the assay with HOP-92 NSCLC, in the assay with A549 NSCLC, with UACC-257 melanoma, in the assay on BT-549 breast, in the assay on SN12C renal and in the assay with LOX IMVI melanoma was greater than 100 µM throughout. Also, the TGI with COLO 205 colon, with T-47D breast, with 786-0 renal, in the assay with NCI-H460 lung, in the assay on SNB-19 CNS and in the assay with SK-OV-3 ovarian was greater than 100 µM in each case. The TGI in the assay with NCI-H522 lung, with CAKI-1 renal, in the assay with MDA-MB-231 breast, in the assay with SF-539 CNS and with HS 578T breast was greater than 100 µM each time.
On to `CC(C)(C)c1cc(O)ccc1O`, for which the TGI was greater than 79.2 µM in the assay with HOP-92 NSCLC; greater than 100 µM in the assay on A549 NSCLC; greater than 21.7 µM in the assay on UACC-257 melanoma; greater than 100 µM with BT-549 breast; greater than 100 µM in the assay with SN12C renal; greater than 74.6 µM in the assay with LOX IMVI melanoma. Further, the TGI was greater than 100 µM in the assay on COLO 205 colon; 41.9 µM in the assay on T-47D breast; greater than 67 µM in the assay with 786-0 renal; greater than 21.6 µM in the assay with NCI-H460 lung; greater than 100 µM in the assay with SNB-19 CNS; greater than 100 µM in the assay with SK-OV-3 ovarian. The TGI with NCI-H522 lung is greater than 39.8 µM; with CAKI-1 renal, greater than 70.4 µM; in the assay with MDA-MB-231 breast it was 4.97 µM; in the assay with SF-539 CNS it was greater than 100 µM; in the assay on HS 578T breast, greater than 100 µM.
Take `N[C@H]1CCCC[C@@H]1N1C(=O)c2ccccc2C1(O)c1ccc(Cl)cc1` (some centres undefined): the TGI came to 24.9 µM in the assay with HOP-92 NSCLC; 25.2 µM in the assay with A549 NSCLC; 11.7 µM in the assay on UACC-257 melanoma; 28.8 µM with BT-549 breast; 27 µM with SN12C renal; 22.5 µM with LOX IMVI melanoma. The TGI with COLO 205 colon was 12.6 µM; with T-47D breast, 14.7 µM; with 786-0 renal, 26.4 µM; in the assay on NCI-H460 lung, 25.2 µM; in the assay with SNB-19 CNS, 27.6 µM; in the assay with SK-OV-3 ovarian, 29.8 µM. Also, the TGI with NCI-H522 lung was determined as 27.8 µM; in the assay on CAKI-1 renal, 20.7 µM; with MDA-MB-231 breast, 27.5 µM; in the assay with SF-539 CNS it was 25 µM; in the assay with HS 578T breast, 54.4 µM.
For `C/C(=N\NC(=S)NCCCNC(=S)N/N=C(\C)c1ccccn1)c1ccccn1`, the TGI in the assay on HOP-92 NSCLC was greater than 66.2 µM; in the assay with A549 NSCLC it was greater than 49.8 µM; in the assay on UACC-257 melanoma it was 29 µM; in the assay on BT-549 breast it was 21.9 µM; with SN12C renal it was 11.2 µM; in the assay with LOX IMVI melanoma, greater than 51.2 µM. Besides, the TGI in the assay with COLO 205 colon was greater than 34.9 µM; with T-47D breast it was greater than 24.1 µM; in the assay with 786-0 renal, 6.07 µM; in the assay with NCI-H460 lung, 10.1 µM; in the assay with SNB-19 CNS it was greater than 69.7 µM; in the assay on SK-OV-3 ovarian, greater than 35.1 µM. The TGI in the assay on NCI-H522 lung was greater than 49.4 µM; with CAKI-1 renal, greater than 49.9 µM; in the assay with MDA-MB-231 breast, greater than 49.9 µM; with SF-539 CNS, 8.72 µM; with HS 578T breast it was greater than 100 µM.
Take `CCC(C#N)NCc1cccc(CNC(C#N)CC)c1` (centres undefined): the TGI in the assay with HOP-92 NSCLC, with A549 NSCLC, in the assay with UACC-257 melanoma, in the assay on BT-549 breast, in the assay on SN12C renal and in the assay with LOX IMVI melanoma was greater than 100 µM throughout. The TGI in the assay on COLO 205 colon was greater than 100 µM; in the assay on T-47D breast, greater than 100 µM; in the assay on 786-0 renal, greater than 100 µM; in the assay with NCI-H460 lung, greater than 100 µM; in the assay on SNB-19 CNS, greater than 100 µM; in the assay with SK-OV-3 ovarian, 32.3 µM. Further, the TGI in the assay on NCI-H522 lung, in the assay with CAKI-1 renal, in the assay on MDA-MB-231 breast, in the assay with SF-539 CNS and in the assay with HS 578T breast was greater than 100 µM in each case.
For the compound `O=c1/c(=C/c2ccc(-c3ccc(Cl)cc3Cl)o2)sc2n1[C@@H](c1ccc(Cl)cc1)C=C(c1cc(F)c(Cl)cc1Cl)N=2`, the TGI in the assay on HOP-92 NSCLC is 61.7 µM; in the assay on A549 NSCLC, greater than 100 µM; in the assay on UACC-257 melanoma, greater than 100 µM; in the assay with BT-549 breast, greater than 100 µM; with SN12C renal, greater than 100 µM; in the assay with LOX IMVI melanoma, greater than 100 µM. In addition, the TGI with COLO 205 colon was greater than 100 µM; in the assay on T-47D breast it was greater than 100 µM; with 786-0 renal it was greater than 100 µM; in the assay with NCI-H460 lung, greater than 100 µM; with SNB-19 CNS, greater than 100 µM; with SK-OV-3 ovarian, 61.7 µM. Moreover, the TGI was greater than 100 µM in the assay on NCI-H522 lung; greater than 100 µM with CAKI-1 renal; 59.2 µM in the assay with MDA-MB-231 breast; greater than 100 µM in the assay on SF-539 CNS; greater than 100 µM in the assay with HS 578T breast.
For `CC(=O)OCc1ccc2oc(=O)c(C(=O)Oc3ccccc3)cc2c1`, the TGI in the assay with HOP-92 NSCLC is 40.2 µM; in the assay on A549 NSCLC it was greater than 100 µM; in the assay with UACC-257 melanoma, greater than 100 µM; in the assay with BT-549 breast, greater than 100 µM; in the assay with SN12C renal, 99.2 µM; in the assay on LOX IMVI melanoma it was greater than 100 µM. Also, the TGI in the assay with COLO 205 colon is greater than 100 µM; in the assay on T-47D breast it was 37.3 µM; in the assay on 786-0 renal, 45.8 µM; with NCI-H460 lung it was greater than 100 µM; with SNB-19 CNS, greater than 100 µM; in the assay with SK-OV-3 ovarian it was greater than 100 µM. Besides, the TGI was greater than 100 µM in the assay on NCI-H522 lung; 38.5 µM in the assay with CAKI-1 renal; 84.2 µM in the assay on MDA-MB-231 breast; greater than 100 µM with SF-539 CNS; greater than 100 µM in the assay with HS 578T breast.
`CCCCn1c2c(n(CCCC)c1=S)-c1c(n(CCCC)c(=S)n1CCCC)SSc1c(n(CCCC)c(=S)n1CCCC)-c1c(n(CCCC)c(=S)n1CCCC)SSc1c(n(CCCC)c(=S)n1CCCC)-c1c(n(CCCC)c(=S)n1CCCC)SS2`: the TGI in the assay with HOP-92 NSCLC was 3.53 µM; in the assay on A549 NSCLC, greater than 50 µM; with UACC-257 melanoma, greater than 50 µM; in the assay with BT-549 breast, greater than 50 µM; in the assay on SN12C renal, greater than 50 µM; in the assay with LOX IMVI melanoma, 13.3 µM. For the same compound, the TGI in the assay on COLO 205 colon was 14.7 µM; in the assay on T-47D breast, 9.51 µM; in the assay on 786-0 renal, greater than 50 µM; with NCI-H460 lung it was greater than 50 µM; in the assay on SNB-19 CNS, greater than 50 µM; with SK-OV-3 ovarian, greater than 50 µM. For the same compound, the TGI in the assay with NCI-H522 lung was 1.86 µM; in the assay on CAKI-1 renal it was greater than 40.2 µM; in the assay with MDA-MB-231 breast it was 8.67 µM; in the assay with SF-539 CNS it was greater than 50 µM; with HS 578T breast, greater than 50 µM.
As to `OCCNCNc1nc(NCNCCO)nc(N(CNCCO)CNCCO)n1`, the TGI with HOP-92 NSCLC was 51.1 µM; in the assay with A549 NSCLC, greater than 78.2 µM; in the assay on UACC-257 melanoma it was 40 µM; in the assay on BT-549 breast, 46 µM; with SN12C renal it was 60.8 µM; in the assay with LOX IMVI melanoma, 40.2 µM. Besides, the TGI was 30.8 µM in the assay on COLO 205 colon; 61.1 µM in the assay with T-47D breast; 36.5 µM with 786-0 renal; 59.4 µM in the assay on NCI-H460 lung; 38.1 µM in the assay on SNB-19 CNS; greater than 85.9 µM in the assay on SK-OV-3 ovarian. In addition, the TGI is 41.3 µM in the assay on NCI-H522 lung; 57.7 µM with CAKI-1 renal; 52.7 µM in the assay on MDA-MB-231 breast; 41.3 µM in the assay with SF-539 CNS; greater than 78.8 µM in the assay with HS 578T breast.
